This note sets out measurements from article PMC7470138, “Novel heterocyclic hybrids of pyrazole targeting dihydrofolate reductase: design, biological evaluation and in silico studies” (Journal of Enzyme Inhibition and Medicinal Chemistry, 2020).

The subject of one series is A. fumigatus RCMB 002568. Kind of series: Minimum inhibitory concentration (MIC), antifungal. It counts as cell-based, Aspergillus fumigates. To be noted: A. fumigatus RCMB 002568, fungi, mean of three values; for MIC: Aspergillus fumigatus, RCMB002568, read-out: MIC (Mean ± SEM).
In the next series the test system is C. albicans RCMB 005036. Kind of series: Minimum inhibitory concentration (MIC), antifungal. The class given is cell-based. To be noted: Candida albicans, RCMB005036; C. albicans RCMB 005036, fungi; mean of three values; read-out: MIC (Mean ± SEM).
In a further series the test system is S. pneumonia RCMB 010010. Kind of series: Minimum inhibitory concentration (MIC), antibacterial. To be noted: S. pneumonia RCMB 010010, Gram-positive, mean of three values; for MIC: Streptococcus pneumoniae, RCMB010010, read-out: MIC (Mean ± SEM). It counts as cell-based, Streptococcus pneumoniae.
The subject of another series is B. subtilis RCMB 010067. Described as above. Particulars: Bacillus subtilis, RCMB010067; B. subtilis RCMB 010067, Gram-positive; mean of three values; read-out: MIC (Mean ± SEM). The class given is cell-based.
In series [1] the test system is P. aeruginosa RCMB 010043. The series is described as above. It counts as cell-based. Particulars: Pseudomonas aeruginosa, RCMB010043; P. aeruginosa RCMB 010043, Gram-negative; mean of three values; read-out: MIC (Mean ± SEM).
Protocol: (§1) Solutions of concentrations (1 µg/mL) of the target compounds were used. […] The diameter of inhibition zone (mm) was measured for the biologically activity using the diffusion technique[35]. […] The different concentrations (triplicate) of each compound were tested and compared with standard drugs.
Another series deals with E. coli RCMB 010052. Described as above. It counts as cell-based. To be noted: Escherichia coli, RCMB010052; E. coli RCMB 010052, Gram-negative; mean of three values; read-out: MIC (Mean ± SEM).
Series [2] concerns the target T1, dihydrofolate reductase (DHFR) (Homo sapiens, UniProt P00374).
T1 sequence (P00374 1-187): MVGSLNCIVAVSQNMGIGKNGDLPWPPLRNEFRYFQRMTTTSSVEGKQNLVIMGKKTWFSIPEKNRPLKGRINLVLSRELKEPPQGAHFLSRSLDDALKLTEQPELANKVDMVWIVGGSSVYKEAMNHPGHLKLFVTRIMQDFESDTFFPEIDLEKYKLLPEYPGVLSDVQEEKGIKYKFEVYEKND
Put plainly: In vitro enzyme assay on dihydrofolate reductase (DHFR). The class given is biochemical. Particulars: absorbance at 340 nm, 22 °C, mean of three values, read-out: IC50 (Mean ± SEM) DHFR.

Series [3] concerns all tested strains (S. pneumoniae, B. subtilis, P. aeruginosa, E. coli, A. fumigates, C. albicans). Put plainly: Antimicrobial sensitivity assay, agar well diffusion (inhibition zone). It counts as cell-based. To be noted: tested bacteria and fungi.
Protocol: as §1
The screening was done for the in vitro antibacterial activity against Gram-positive Streptococcus pneumoniae and Bacillus subtilis, and Gram-negative Pseudomonas aeruginosa and Escherichia coli, and for the in vitro antifungal activity against Aspergillus fumigates and Candida albicans.

Converted amounts (≈) assume the structure as drawn.

Protocol for A. fumigatus RCMB 002568: as §1
Protocol for B. subtilis RCMB 010067: as §1
Protocol for C. albicans RCMB 005036: Solutions of concentrations (1 µg/mL) of the target compounds were used. […] The different concentrations (triplicate) of each compound were tested and compared with standard drugs.
Protocol for E. coli RCMB 010052: as §1
Protocol for S. pneumonia RCMB 010010: as §1

What is called MIC is the lowest concentration that inhibits growth of the organism. Regarding `C[C@@H]1[C@H](O)[C@@H](C)/C=C/C=C/C=C/C=C/C=C/C=C/C=C/[C@H](O[C@@H]2O[C@H](C)[C@@H](O)[C@H](N)[C@@H]2O)C[C@@H]2O[C@](O)(C[C@@H](O)C[C@@H](O)[C@H](O)CC[C@@H](O)C[C@@H](O)CC(=O)O[C@H]1C)C[C@H](O)[C@H]2C(=O)O` [Amphotericin B, reference compound], in the series with A. fumigatus RCMB 002568, the “MIC (Mean ± SEM)” value was determined as 1.95 µg/mL (≈ 2.11 µM) and the MIC came to 1.95 ± 0.3 µg/mL (≈ 2.11 µM). For the same compound, the MIC with C. albicans RCMB 005036 amounted to 3.9 ± 0.1 µg/mL (≈ 4.22 µM).
For the compound `O=C(O)c1cn(C2CC2)c2cc(N3CCNCC3)c(F)cc2c1=O` [Ciprofloxacin, reference compound], the “MIC (Mean ± SEM)” value against S. pneumonia RCMB 010010 came out at 0.98 µg/mL (≈ 2.96 µM). Besides, the MIC in the series on S. pneumonia RCMB 010010 is 0.98 ± 0.2 µg/mL (≈ 2.96 µM); in the series on B. subtilis RCMB 010067, 0.1 ± 0.3 µg/mL (≈ 0.302 µM); in series [1], 0.5 ± 0.05 µg/mL (≈ 1.51 µM); in the series with E. coli RCMB 010052 it was 0.01 ± 0.1 µg/mL (≈ 0.0302 µM).
Turning to `CC1=NNC(=O)C1=NNc1ccc(S(N)(=O)=O)cc1` [Compound 3a, 4-(2-(3-Methyl-5-oxo-1,5-dihydro-4H-pyrazol-4-ylidene)hydrazineyl)benzenesulfonamide], the “MIC (Mean ± SEM)” value in the series with S. pneumonia RCMB 010010 and in the series with A. fumigatus RCMB 002568 was 1.95 µg/mL (≈ 6.93 µM) each time. In addition, the MIC in the series on S. pneumonia RCMB 010010 turned out to be 1.95 ± 0.3 µg/mL (≈ 6.93 µM); in the series on B. subtilis RCMB 010067, 0.98 ± 0.1 µg/mL (≈ 3.48 µM); in series [1] it was 7.81 ± 0.3 µg/mL (≈ 27.8 µM); with E. coli RCMB 010052, 0.98 ± 0.6 µg/mL (≈ 3.48 µM); in the series on A. fumigatus RCMB 002568, 1.95 ± 0.1 µg/mL (≈ 6.93 µM); in the series with C. albicans RCMB 005036, 3.9 ± 0.3 µg/mL (≈ 13.9 µM).
The term IC50 denotes the concentration that inhibits the measured activity by half. Broadly, the melting point is the temperature, or range, at which the solid turns liquid. `CC1=NNC(=O)C1=NNc1cccc2ccccc12` [Compound 3b, 5-Methyl-4–(2-(naphthalene-1-yl)hydrazineylidene)-2,4-dihydro-3H-pyrazol-3-one] returned a melting point of 189 to 191 °C. Moreover, the MIC with S. pneumonia RCMB 010010 came to 7.81 ± 0.1 µg/mL (≈ 31 µM). Moreover, in the series on B. subtilis RCMB 010067, the MIC turned out to be 15.6 ± 0.5 µg/mL (≈ 62 µM). For the same compound, in series [1], the MIC turned out to be 125 ± 0.3 µg/mL (≈ 495 µM). For the same compound, the MIC in the series with E. coli RCMB 010052 amounted to 250 ± 0.5 µg/mL (≈ 991 µM). In the series on A. fumigatus RCMB 002568, the MIC stood at 125 ± 0.2 µg/mL (≈ 495 µM). Further, the minimum inhibitory concentration (MIC) in the series with C. albicans RCMB 005036 worked out at 62.5 ± 0.1 µg/mL (≈ 248 µM). Further, the IC50 in series [2] came out at 18.3 ± 0.81 µM.
`Cc1nnc2c(C#N)c(N)n(-c3ccc(S(N)(=O)=O)cc3)nc1-2` [Compound 6a, 4-(6-Amino-7-cyano-3-methyl-5H-pyrazolo[4,3-c]pyridazin-5-yl)benzenesulphonamide]: the MIC turned out to be 0.98 ± 0.1 µg/mL (≈ 2.98 µM) in the series on S. pneumonia RCMB 010010; 0.49 ± 0.2 µg/mL (≈ 1.49 µM) with B. subtilis RCMB 010067; 3.9 ± 0.1 µg/mL (≈ 11.8 µM) in series [1]; 0.49 ± 0.4 µg/mL (≈ 1.49 µM) in the series on E. coli RCMB 010052; 0.98 ± 0.2 µg/mL (≈ 2.98 µM) in the series on A. fumigatus RCMB 002568; 3.9 ± 0.03 µg/mL (≈ 11.8 µM) with C. albicans RCMB 005036. In addition, the “antimicrobial activity (in words)” value in series [3] is recorded as “highly active”.
For `Cc1n[nH]c2c(C#N)c(=O)n(-c3ccc(S(N)(=O)=O)cc3)nc12` [Compound 6b, 4-(7-Cyano-3-methyl-6-oxo-1,6-dihydro-5H-pyrazolo[4,3-c]pyridazin-5-yl)benzenesulphonamide], the “MIC (Mean ± SEM)” value against S. pneumonia RCMB 010010 and in the series on A. fumigatus RCMB 002568 was 1.95 µg/mL (≈ 5.9 µM) each time. For the same compound, the MIC is 1.95 ± 0.4 µg/mL (≈ 5.9 µM) in the series on S. pneumonia RCMB 010010; 0.98 ± 0.1 µg/mL (≈ 2.97 µM) in the series with B. subtilis RCMB 010067; 62.5 ± 0.3 µg/mL (≈ 189 µM) in series [1]; 0.98 ± 0.1 µg/mL (≈ 2.97 µM) with E. coli RCMB 010052; 1.95 ± 0.3 µg/mL (≈ 5.9 µM) with A. fumigatus RCMB 002568; 7.81 ± 0.05 µg/mL (≈ 23.6 µM) in the series on C. albicans RCMB 005036. Moreover, the IC50 in series [2] stood at 5.24 ± 0.37 µM. The “antimicrobial activity (in words)” value in series [3] is reported as “highly active”.
In turn, `Cc1nnc2c(C#N)c(N)n(-c3cccc4ccccc34)nc1-2` [Compound 6c, 6-Amino-3-methyl-5-(naphthalen-1-yl)-5H-pyrazolo[4,3-c]pyridazine-7-carbonitrile] had a melting point of 288 to 290 °C. Besides, in [3], the “antimicrobial activity (in words)” value is “either inactive or less active”.
For `Cc1n[nH]c2c(C#N)c(=O)n(-c3cccc4ccccc34)nc12` [Compound 6d, 3-Methyl-5-(naphthalen-1-yl)-6-oxo-5,6-dihydro-1H-pyrazolo[4,3-c]pyridazine-7-carbonitrile], in that order: 282 to 284 °C and “either inactive or less active”.
`Cc1nnc2n(-c3ccccc3)c(=S)n(-c3ccc(S(N)(=O)=O)cc3)nc1-2` [Compound 8a, 4-(7-Methyl-4-phenyl-3-thioxo-3,4-dihydro-2H-pyrazolo[3,4-e][1,2,4]triazin-2-yl)benzenesulphonamide] gave a melting point of 275 to 277 °C. The MIC with S. pneumonia RCMB 010010 was 15.6 ± 0.5 µg/mL (≈ 39.2 µM). The MIC in the series on B. subtilis RCMB 010067 stood at 125 ± 0.4 µg/mL (≈ 314 µM). The MIC in series [1] came out at 125 ± 0.3 µg/mL (≈ 314 µM). For the same compound, in the series with E. coli RCMB 010052, the MIC stood at 62.5 ± 0.3 µg/mL (≈ 157 µM). Also, in the series with A. fumigatus RCMB 002568, the MIC was determined as 3.9 ± 0.1 µg/mL (≈ 9.79 µM). Further, in the series on C. albicans RCMB 005036, the MIC was 62.5 ± 0.5 µg/mL (≈ 157 µM). Besides, the IC50 in series [2] amounted to 1.36 ± 0.12 µM. Besides, in series [3], the “antimicrobial activity (in words)” value is reported as “highly active”.
On to `Cc1nnc2n(-c3ccccc3)c(=S)n(-c3cccc4ccccc34)nc1-2` [Compound 8b, 7-Methyl-2-(naphthalen-1-yl)-4-phenyl-2,4-dihydro-3H-pyrazolo[3,4-e][1,2,4]triazine-3-thione], for which the melting point lay within 257 to 259 °C. Besides, in series [3], the “antimicrobial activity (in words)” value is “either inactive or less active”.
`Cc1n[nH]c2nn(-c3ccc(S(N)(=O)=O)cc3)nc12` [Compound 9a, 4-(6-Methylpyrazolo[3,4-d][1,2,3]triazol-2(4H)-yl)benzenesulphonamide]: the melting point is over 300 °C. Besides, the MIC in the series with S. pneumonia RCMB 010010 came out at 3.9 ± 0.3 µg/mL (≈ 14 µM). Also, in the series on B. subtilis RCMB 010067, the MIC amounted to 1.95 ± 0.08 µg/mL (≈ 7.01 µM). Also, in series [1], the MIC was found to be 15.6 ± 0.5 µg/mL (≈ 56.2 µM). Also, the MIC in the series on E. coli RCMB 010052 is 1.95 ± 0.3 µg/mL (≈ 7.01 µM). In the series on A. fumigatus RCMB 002568, the MIC came out at 250 ± 0.2 µg/mL (≈ 898 µM). In the series with C. albicans RCMB 005036, the minimal inhibitory concentration (MIC) is 7.81 ± 0.2 µg/mL (≈ 28.1 µM). The IC50 in series [2] stood at 1.45 ± 0.23 µM. Besides, the “antimicrobial activity (in words)” value in series [3] is given as “highly active”.
With `Cc1n[nH]c2nn(-c3cccc4ccccc34)nc12` [Compound 9b, 6-Methyl-2-(naphthalen-1-yl)-2,4-dihydropyrazolo[3,4-d][1,2,3]triazole], the melting point is over 300 °C. Besides, the “antimicrobial activity (in words)” value in series [3] is “either inactive or less active”.
